PMC10138554, “Insights into the Microbicidal, Antibiofilm, Antioxidant and Toxicity Profile of New O-Aryl-Carbamoyl-Oxymino-Fluorene Derivatives” (International Journal of Molecular Sciences, 2023)
In brackets after ≈: the same amount, converted by molar mass.

Test: Toxicity on the Artemia franciscana Kellog crustacean species (lethality of nauplii)
Format: in vivo
Conditions: Artemia franciscana Kellog (brine shrimp nauplii), in vivo, other: nauplii placed in contact with the test suspensions, four-parameter logistic model
Protocol: The oocysts (Great Salt Lake, USA) provided by S.K. Trading were grown on artificial seawater medium (Coral Marine, Grotech), dissolved in distilled water with a few minutes of sonication, at 30 g/L concentration. The test was carried out in a 24-well plate, using three replicates. Because of their low solubility, the compounds 1a–d were suspended in the culture medium using sodium alginate (0.045%) (also used a negative control), the testing being carried out at the solubility limit. The concentrations 100, 50, 25, 12.5 and 6.2 μg/mL used for each substance were obtained by successive dilutions starting from the initial suspension. Between 10 and 15 nauplii per well were collected and placed in contact with the test suspensions (1.5 mL/well). All nauplii, dead or alive, were counted and recorded within 24 h of being placed in contact with the tested suspensions. The non-linear modeling of the concentration-lethality relationship was achieved through a four-parameter logistics model (4PL), implemented in several robust variants for estimating parameters in the R package “dr4pl” [78].

With `O=C(Nc1ccc(Cl)c(Cl)c1)ON=C1c2ccccc2-c2ccccc21` [Compound 1d, 9-((3,4-dichloro-phenyl)carbamoyloxymino)fluoren] the LC50 at 24 h was 14.6 µg/mL (≈ 38.2 µM).
